Results taken from paper PMC2919811 (Analytical biochemistry, 2010).
“And” between values parts separate entries of the source, which are not always exact repeats. Equal entries are not always repeated.

What was measured:
OATP1B1 = OATP1B1 (Homo sapiens, UniProt Q9Y6L6); experiment: Substrate uptake and transport kinetics in CHO cells stably expressing OATP1B1
OCT2 = molecular target: T1, OCT2 (Homo sapiens, UniProt O15244); experiment: Cellular accumulation in CHO cells transiently transfected with OCT2; assay type: cell-based; details: 10 μM 8-FcA, 20 minutes
T1 sequence (O15244 1-555): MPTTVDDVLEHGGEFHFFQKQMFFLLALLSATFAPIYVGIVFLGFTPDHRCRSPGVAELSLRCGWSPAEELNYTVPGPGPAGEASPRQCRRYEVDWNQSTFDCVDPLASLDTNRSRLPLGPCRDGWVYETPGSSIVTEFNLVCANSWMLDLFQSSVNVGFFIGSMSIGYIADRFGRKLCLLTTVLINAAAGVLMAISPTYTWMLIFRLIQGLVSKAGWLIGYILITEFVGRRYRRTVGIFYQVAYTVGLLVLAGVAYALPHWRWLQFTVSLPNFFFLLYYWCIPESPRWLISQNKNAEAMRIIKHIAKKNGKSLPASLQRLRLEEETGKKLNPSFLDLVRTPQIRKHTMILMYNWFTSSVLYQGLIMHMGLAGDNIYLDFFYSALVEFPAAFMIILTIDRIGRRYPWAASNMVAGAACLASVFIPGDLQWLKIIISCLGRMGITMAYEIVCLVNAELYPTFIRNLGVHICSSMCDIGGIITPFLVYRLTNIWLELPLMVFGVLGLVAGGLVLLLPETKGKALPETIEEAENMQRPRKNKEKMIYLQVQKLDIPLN

OAT1 = molecular target: T2, OAT1 (Homo sapiens, UniProt Q4U2R8); experiment: Cellular accumulation in CHO cells transiently transfected with OAT1; assay type: cell-based; details: 10 μM 8-FcA, 20 minutes
T2 sequence (Q4U2R8 1-563): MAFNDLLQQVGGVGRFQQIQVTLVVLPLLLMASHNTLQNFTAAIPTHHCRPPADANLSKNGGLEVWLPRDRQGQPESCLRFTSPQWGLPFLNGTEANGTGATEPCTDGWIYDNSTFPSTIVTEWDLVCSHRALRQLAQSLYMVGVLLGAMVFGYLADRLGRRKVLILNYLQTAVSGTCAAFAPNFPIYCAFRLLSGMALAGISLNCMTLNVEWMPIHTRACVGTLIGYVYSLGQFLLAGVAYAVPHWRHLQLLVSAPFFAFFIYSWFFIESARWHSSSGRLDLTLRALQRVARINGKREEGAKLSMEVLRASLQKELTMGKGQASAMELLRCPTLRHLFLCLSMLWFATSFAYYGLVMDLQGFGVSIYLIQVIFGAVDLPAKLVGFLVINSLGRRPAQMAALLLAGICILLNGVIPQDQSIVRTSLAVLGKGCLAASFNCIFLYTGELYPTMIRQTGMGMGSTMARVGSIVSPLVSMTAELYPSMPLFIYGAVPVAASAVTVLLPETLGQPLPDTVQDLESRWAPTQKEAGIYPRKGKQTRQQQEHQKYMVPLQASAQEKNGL

[1] = stated in the introduction without data or own reference; cited from earlier work
OAT3 = molecular target: T3, OAT3 (Homo sapiens, UniProt Q8TCC7); assay type: cell-based; details: 10 μM 8-FcA, 20 minutes
T3 sequence (Q8TCC7 1-542): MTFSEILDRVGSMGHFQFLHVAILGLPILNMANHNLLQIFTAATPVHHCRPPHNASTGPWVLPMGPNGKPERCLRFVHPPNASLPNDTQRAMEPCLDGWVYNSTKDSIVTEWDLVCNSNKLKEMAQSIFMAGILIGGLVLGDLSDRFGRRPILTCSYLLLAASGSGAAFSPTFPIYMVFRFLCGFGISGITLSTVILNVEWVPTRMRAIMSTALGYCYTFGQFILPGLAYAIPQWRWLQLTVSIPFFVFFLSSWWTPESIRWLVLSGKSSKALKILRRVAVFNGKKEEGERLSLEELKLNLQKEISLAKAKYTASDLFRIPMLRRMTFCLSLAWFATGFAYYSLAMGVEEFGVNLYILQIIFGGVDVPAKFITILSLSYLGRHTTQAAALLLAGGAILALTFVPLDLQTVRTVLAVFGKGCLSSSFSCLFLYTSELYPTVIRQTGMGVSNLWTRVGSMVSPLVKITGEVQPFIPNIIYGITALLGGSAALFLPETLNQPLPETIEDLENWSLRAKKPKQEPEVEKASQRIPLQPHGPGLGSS

Sequence of OATP1B1 (Q9Y6L6 whole entry): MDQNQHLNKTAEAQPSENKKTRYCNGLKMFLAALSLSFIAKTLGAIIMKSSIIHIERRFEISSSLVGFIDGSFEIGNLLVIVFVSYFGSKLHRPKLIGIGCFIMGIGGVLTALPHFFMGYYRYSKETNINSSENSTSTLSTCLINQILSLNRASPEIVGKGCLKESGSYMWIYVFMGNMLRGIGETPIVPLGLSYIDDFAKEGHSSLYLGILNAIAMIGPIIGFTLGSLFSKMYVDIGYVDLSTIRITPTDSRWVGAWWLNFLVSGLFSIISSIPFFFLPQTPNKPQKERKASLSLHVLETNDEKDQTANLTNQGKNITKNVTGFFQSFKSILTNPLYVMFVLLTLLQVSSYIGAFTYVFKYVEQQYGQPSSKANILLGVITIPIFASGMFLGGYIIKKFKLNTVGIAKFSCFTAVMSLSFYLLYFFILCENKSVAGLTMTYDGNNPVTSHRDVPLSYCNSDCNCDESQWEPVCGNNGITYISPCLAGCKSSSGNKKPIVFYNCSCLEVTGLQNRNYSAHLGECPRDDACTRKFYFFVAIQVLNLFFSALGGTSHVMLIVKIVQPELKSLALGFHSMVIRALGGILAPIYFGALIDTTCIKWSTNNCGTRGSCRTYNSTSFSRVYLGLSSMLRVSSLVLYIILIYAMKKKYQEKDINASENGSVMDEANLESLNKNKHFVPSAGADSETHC

With `Nc1ncnc2c1nc(SCCNC(=S)Nc1ccc(-c3c4ccc(=O)cc-4oc4cc(O)ccc34)c(C(=O)O)c1)n2[C@@H]1O[C@@H]2COP(=O)(O)O[C@H]2[C@H]1O` [8-FcA, 8-(2-[Fluoresceinyl]aminoethylthio) adenosine-3', 5'-cyclic monophosphate] the “transport efficiency, Vmax/Km (OATP1B1)” value (OATP1B1) was 0.069 μL/min/cm^2, the “cellular accumulation relative to control, CHOOATP1B1” value (OATP1B1; 2 μM substrate, five minute accumulation, CHOvector = 1) was “robust accumulation” and the “Vmax of OATP1B1-mediated transport” value (OATP1B1; 8-FcA 0.25-25 μM, 10 min uptake, CHOvector subtracted, mean ± standard error) was 0.20 pmol/min/cm^2 and 0.20±0.01 pmol/min/cm^2. For the same compound, the “cellular accumulation by fluorescence microscopy, OCT2” value (OCT2) was “negative”, the “cellular accumulation by fluorescence microscopy, OAT1” value (OAT1) was “modest accumulation” and the aqueous solubility [1] was “very high aqueous solubility”. For the same compound, the “cellular accumulation by fluorescence microscopy, OAT3” value (OAT3) was “negative”.
